# Reference: patent publication US20100168090A1, “Active Ingredient Combinations With Insecticidal and Acaricidal Properties” (BAYER CROPSCIENCE AG, priority 2006, published 2010)
# Legend:
# Assay type in all cases: in vivo
# [1] = system: green peach aphid (Myzus persicae); assay: Myzus persicae test (cabbage leaves dipped); details: single active compound; for Kill in % after 1 d: Table A 1
# Source text: (§1) The expected action for a given combination of two active compounds can be calculated as follows, according to S. R. Colby, Weeds 15 (1967), 20-22:
# (§2) If • X is the kill rate, expressed as a percentage of the untreated control, when employing active compound A at an application rate of m g/ha or in a concentration of m ppm, • Y is the kill rate, expressed as a percentage of the untreated control, when employing active compound B at an application rate of n g/ha or in a concentration of n ppm and • E is the kill rate, expressed as a percentage of the untreated control, when employing active compounds A and B at application rates of m and n g/ha or in a concentration of m and n ppm, then
# (§3) If the actual kill rate exceeds the calculated value, the kill of the combination is superadditive, i.e. a synergistic effect is present. In this case, the actually observed kill rate must exceed the value calculated using the above formula for the expected kill rate (E).
# (§4) Solvent: 7 parts by weight of dimethylformamide Emulsifier: 2 parts by weight of alkylaryl polyglycol ether
# (§5) To produce a suitable preparation of active compound, 1 part by weight of active compound is mixed with the stated amounts of solvent and emulsifier, and the concentrate is diluted with emulsifier-containing water to the desired concentration.
# Cabbage leaves (Brassica oleracea) which are heavily infested by the green peach aphid (Myzus persicae) are treated by being dipped into the active compound preparation of the desired concentration.
# (§6) After the desired period of time, the kill in % is determined. 100% means that all aphids have been killed; 0% means that none of the aphids have been killed. The kill rates determined are entered into Colby's formula.
# [2] = system: larvae of the mustard beetle (Phaedon cochleariae); assay: Phaedon cochleariae larvae test (cabbage leaves dipped); details: single active compound
# Source text: as §1, §2, §3, §4
# To produce a suitable preparation of active compound, 1 part by weight of active compound is mixed with the stated amounts of solvents and emulsifier, and the concentrate is diluted with emulsifier-containing water to the desired concentration.
# Cabbage leaves (Brassica oleracea) are treated by being dipped in the active compound preparation of the desired concentration and are populated with larvae of the mustard beetle (Phaedon cochleariae) while the leaves are still moist.
# After the desired period of time, the kill in % is determined. 100% means that all beetle larvae have been killed; 0% means that none of the beetle larvae have been killed. The kill rates determined are entered into Colby's formula.
# [3] = system: cotton aphid (Aphis gossypii); assay: Aphis gossypii test (cotton leaves dipped); details: single active compound
# Source text: as §1, §2, §3, §4, §5
# Cotton leaves (Gossypium herbaceum) which are heavily infested by the cotton aphid (Aphis gossypii) are treated by being dipped into the active compound preparation of the desired concentration.
# as §6
smiles,measurement,setting,value
"C/C(=N\C#N)N(C)Cc1ccc(Cl)nc1 [acetamiprid (II-e), acetamiprid]",Kill in % after 6 d,"[1]; Table A 3, 0.16 ppm",10%
"CN/C(=N\[N+](=O)[O-])NCc1cnc(Cl)s1 [clothianidin (IIm), clothianidin]",Kill in % after 6 d,[2]; 0.8 ppm,25%
CO[C@H]1CC[C@]2(CC1)NC(=O)C(c1cc(C)ccc1C)=C2O [compound (I-1)],Kill in % after 6 d,[2]; 20 ppm,10%
same,Kill in % after 6 d,"[1]; Table A 2, 0.8 ppm",5%
COC1CCC2(CC1)NC(=O)C(c1cc(C)ccc1C)=C2O (stereo not shown) [compound (I-1-a)],Kill in % after 6 d,[2]; 20 ppm,20%
same,Kill in % after 6 d,"[1]; Table A 2, 0.8 ppm",0%
CCOC(=O)OC1=C(c2cc(C)ccc2C)C(=O)N[C@]12CC[C@@H](OC)CC2 [compound (I-2)],Kill in % after 1 d,[3]; 20 ppm,5%
same,Kill in % after 6 d,[2]; 20 ppm,35%
same,Kill in % after 1 d,[1]; 4 ppm,0%
same,Kill in % after 6 d,"[1]; Table A 3, 4 ppm",80%
CCOC(=O)OC1=C(c2cc(C)ccc2C)C(=O)NC12CCC(OC)CC2 (stereo not shown) [compound (I-2-a)],Kill in % after 1 d,[3]; 20 ppm,10%
same,Kill in % after 6 d,[2]; 20 ppm,10%
same,Kill in % after 1 d,[1]; 4 ppm,0%
same,Kill in % after 6 d,"[1]; Table A 3, 4 ppm",85%
"CN/C(=N/CC1CCOC1)N[N+](=O)[O-] (stereo not shown) [dinotefuran (II l), dinotefuran]",Kill in % after 1 d,[3]; 4 ppm,30%
same,Kill in % after 6 d,"[1]; Table A 3, 0.16 ppm",0%
"O=[N+]([O-])NC1=NCCN1Cc1ccc(Cl)nc1 [imidacloprid (II-a), imidacloprid]",Kill in % after 6 d,[2]; 0.8 ppm,0%
same,Kill in % after 1 d,[1]; 0.16 ppm,15%
same,Kill in % after 6 d,"[1]; Table A 2, 0.032 ppm",5%
"O=[N+]([O-])/N=C1\NCCN1Cc1cnc(Cl)s1 [imidaclothiz (II n), imidaclothiz]",Kill in % after 6 d,"[1]; Table A 3, 0.16 ppm",0%
"N#C/N=C1\SCCN1Cc1ccc(Cl)nc1 [thiacloprid (IIk), thiacloprid]",Kill in % after 6 d,[2]; 0.8 ppm,0%
"CN1COCN(Cc2cnc(Cl)s2)/C1=N\[N+](=O)[O-] [thiamethoxam (IIg), thiamethoxam]",Kill in % after 6 d,[2]; 0.8 ppm,0%
